In patent publication US20050143296A1, “Extraction and utilization of cell growth-promoting peptides from silk protein” (priority 2003, published 2005):
“Also recorded” adds a separate entry of the source. Where a SMILES comes first, the peptide text is derived from it. Where no end group is shown, it is not given here.

What was measured:
[1] = Dissolution of synthetic peptides in PBS for coating; assay type: physicochemical; conditions: about 1 mg peptide in 200 μl of PBS
Procedure: About 1 mg each of the synthetic peptides was dissolved in 200 μl of PBS. The dissolved peptide solutions were diluted with 70% ethanol to adjust to 0.025% and 0.0025% concentrations, and 1 ml each of these solutions were put in dishes and dried.
70% ethanol, put in a dish and dried.

human skin fibroblasts [2] = assay: Growth of human skin fibroblasts in dishes coated with silk fractions or peptides (low serum medium with LSGS, Alamer Blue viable cell number); assay type: cell-based; conditions: for Growth rate (%): control = 100; for cell growth promotion (in words): human skin fibroblasts in coated dishes, compared to control without peptide
Procedure: Only 1 ml of 70% ethanol was added to dishes for control.
The cells used were human skin fibroblasts (originating from adult normal skin) purchased (frozen) from Sanko Junyaku Co., Ltd.
The medium was added at 2 ml per dish, and 80,000 cells were inoculated and cultured for 3 days.
The medium at 2 ml per dish and Alamer Blue (Iwaki Glass Co.) at 0.1 ml per dish were added and cultured for 2 hours at 37 degrees C., and then the reduced amount of Alamer Blue dye calculated from the absorbances at 570 nm and 600 nm was correlated with viable cell number.
Control dishes contained only 70% ethanol at 1 ml, followed by air-drying.
About 1 mg each of the synthetic peptides was dissolved in 200 μl of PBS.
The cells used were human skin fibroblasts (originating from adult normal skin) purchased (frozen) from Sanko Junyaku Co. Ltd.
The culture medium used was the low serum culture medium for human skin fibroblast growth purchased from Kurabo Industries Ltd.
The medium was added at 2 ml per dish, and ca. 80,000 cells were inoculated and cultured for 3 days.
Then, 0.1 ml of Alamer Blue (Iwaki Glass Co.) was added and cultured for 2 hours at 37 degrees C., and the reduced amount of Alamer Blue calculated from the absorbances at 570 nm and 600 nm was correlated with viable cell number.

human skin fibroblasts [3] = assay: Adhesion of human skin fibroblasts after 5 hours in peptide-coated dishes (Medium 106S without LSGS); assay type: cell-based; conditions: Table 8; 5 hour-culture; peptide 0.025 μg/cm^2; no LSGS; no peptide = 100
Procedure: (§1) This method partly differs from the method in (3) Cell culture of Example 1.
(§2) In the present cell culture, the cells used were human skin fibroblasts (originating from adult normal skin) purchased (frozen) from Sanko Junyaku Co. Ltd.
(§3) The culture medium used was the low serum culture medium for human skin fibroblast growth purchased from Kurabo Industries Ltd. (Medium 106S 500 ml).
(§4) The medium 106S is a basal medium for skin fibroblasts.
(§5) LSGS (low serum growth supplement) was not used here.
In the measurement of adhesion, the cells floating in the medium at 5 hours after inoculation of cells into the medium were removed, and the viable cell number adhering to the bottom of a dish was measured.
(§6) Besides the cell culture method, coating of peptides on cell culture dishes, measurement of viable cell number with Alamer Blue dye, and the like were carried out as described in Example 1.
(§7) In this case, the concentration of each peptide coated on dishes was 0.025 μg/cm^2.
The adhesion rate (%) in the case where no peptide was coated was set at 100.

human skin fibroblasts [4] = assay: Proliferation of human skin fibroblasts after 3-day culture in peptide-coated dishes (Medium 106S without LSGS); assay type: cell-based; conditions: Table 9, peptide 0.025 μg/cm^2, no LSGS, no peptide = 100
Procedure: as §1, §2, §3, §4, §5
In the measurement of proliferation, the viable cell number at 3 days after inoculation of cells into the medium was measured.
as §6, §7
The growth rate (%) in the case where no peptide was coated was set at 100.
It should be noted that the viable cell number in the control in 3-day culturing increased about 150% during the culture and the control value (100%) was based on the viable cell number after 3-day culture.
Accordingly, when there was no increase or decrease in the cell number after 3-day culturing, the growth rate would become about 70%.

human skin fibroblasts [5] = assay: Growth of human skin fibroblasts in dishes coated with silk fractions or peptides (low serum medium with LSGS, Alamer Blue viable cell number); assay type: cell-based; conditions: for Growth rate (%): Table 3, gel filtration peaks of A-6, cultured for 2 days, control = 100; for growth rate relative to the growth of the control: after 2-day culture (Table 3)
[6] = Table 7, peptide concentration 0.025 μg/cm^2, 3-day culture
[7] = Table 5, synthetic peptide 0.0025%, 3-day culture
[8] = Table 5, synthetic peptide 0.025%, 3-day culture
[9] = Table 6, values of Tables 4 and 5 at higher peptide concentration (0.025%)

Compound | Cell growth rate (%) (human skin fibroblasts [2]; [6]) | Adhesion rate (%) (human skin fibroblasts [3]) | Growth rate (%) (human skin fibroblasts [4]) | Cell growth rate (%) (human skin fibroblasts [2]; [9]) | other results
C[C@H](N)C(=O)N[C@@H](C)C(=O)N[C@@H](C)C(=O)N[C@@H](C)C(=O)N[C@@H](C)C(=O)N[C@@H](C)C(=O)N[C@@H](C)C(=O)N[C@@H](C)C(=O)N[C@@H](C)C(=O)N[C@@H](C)C(=O)O [AfH0, Ala Ala Ala Ala Ala Ala Ala Ala Ala Ala] |  |  |  |  | solubility (in words) [1]: hard to dissolve
N[C@@H](CCC(=O)O)C(=O)O [Glu, glutamic acid, reference compound] | 69% |  |  |  | 
C[C@H](NC(=O)CN)C(=O)NCC(=O)N[C@@H](C)C(=O)NCC(=O)N[C@@H](CO)C(=O)NCC(=O)N[C@@H](C)C(=O)NCC(=O)N[C@@H](C)C(=O)NCC(=O)N[C@@H](CO)C(=O)NCC(=O)N[C@@H](C)C(=O)NCC(=O)N[C@@H](C)C(=O)NCC(=O)N[C@@H](Cc1ccc(O)cc1)C(=O)NCC(=O)N[C@@H](C)C(=O)NCC(=O)N[C@@H](Cc1ccc(O)cc1)C(=O)O [SfHC-1] (H-GAGAGSGAGAGSGAGAGYGAGY-OH; N-terminus and C-terminus assumed) |  |  |  |  | solubility (in words) [1]: difficult to dissolve
C[C@H](NC(=O)CN)C(=O)NCC(=O)N[C@@H](C)C(=O)NCC(=O)N[C@@H](CO)C(=O)NCC(=O)N[C@@H](C)C(=O)N[C@@H](C)C(=O)N[C@@H](CO)C(=O)NCC(=O)N[C@@H](C)C(=O)NCC(=O)N[C@@H](C)C(=O)NCC(=O)N[C@@H](C)C(=O)NCC(=O)N[C@@H](C)C(=O)NCC(=O)N[C@@H](C)C(=O)NCC(=O)N[C@H](C(=O)O)[C@@H](C)O [SfHC-2] (H-GAGAGSGAASGAGAGAGAGAGT-OH; N-terminus and C-terminus assumed) |  |  |  |  | solubility (in words) [1]: difficult to dissolve
CC(C)[C@H](NC(=O)[C@H](CO)NC(=O)[C@H](CO)NC(=O)[C@H](C)NC(=O)[C@H](C)N)C(=O)N[C@@H](CO)C(=O)N[C@@H](CO)C(=O)N[C@@H](C)C(=O)N[C@@H](CO)C(=O)N[C@@H](CO)C(=O)N[C@@H](CCCNC(=N)N)C(=O)N[C@@H](CO)C(=O)N[C@@H](Cc1ccc(O)cc1)C(=O)N[C@@H](CC(=O)O)C(=O)N[C@@H](Cc1ccc(O)cc1)C(=O)N[C@@H](CO)C(=O)N[C@@H](CCCNC(=N)N)C(=O)N[C@@H](CCCNC(=N)N)C(=O)N[C@@H](CC(N)=O)C(=O)N[C@H](C(=O)N[C@@H](CCCNC(=N)N)C(=O)N[C@@H](CCCCN)C(=O)N[C@@H](CC(N)=O)C(=O)O)C(C)C [SfHE] (H-AASSVSSASSRSYDYSRRNVRKN-OH; N-terminus and C-terminus assumed) |  |  |  |  | solubility (in words) [1]: difficult to dissolve
DDGFVLDGGYDSE [AfH7] |  | 153% | 89% | 284% | Growth rate (%) (human skin fibroblasts [2]; [7]): 155 ± 5.3%; Growth rate (%) (human skin fibroblasts [2]; [8]): 284 ± 25.1%; cell growth promotion (in words) (human skin fibroblasts [2]): excellent cell growth promotion
DEDEDE | 322% | 229% |  |  | 
DEYVDN [AfH5] |  | 234% | 108% | 344% | Growth rate (%) (human skin fibroblasts [2]; [7]): 192 ± 11.3%; Growth rate (%) (human skin fibroblasts [2]; [8]): 344 ± 7.7%; cell growth promotion (in words) (human skin fibroblasts [2]): excellent cell growth promotion
EEEEEE | 346% |  |  |  | 
EEYEEY | 212% |  |  |  | 
EYEYEY | 207% |  |  |  | 
GSGAGGRGDGGYGSGSS [AfH3] |  | 174% | 69% | 194% | Growth rate (%) (human skin fibroblasts [2]; [7]): 111 ± 9.0%; Growth rate (%) (human skin fibroblasts [2]; [8]): 194 ± 24.5%
GSSGFGPYVAHGGYSGYEYAWSSESDFGT [SfHA] |  | 205% | 159% | 316% | Growth rate (%) (human skin fibroblasts [2]; Table 4, synthetic peptide 0.0025%, 3-day culture): 321 ± 6.2%; Growth rate (%) (human skin fibroblasts [2]; Table 4, synthetic peptide 0.025%, 3-day culture): 316 ± 5.7%
Glu Glu | 159% |  |  |  | 
Glu Glu Glu Glu (EEEE; printed: Glu Glu Glu Glu) | 231% |  |  |  | 
Glu Glu Glu Glu Glu Glu Glu Glu Glu Glu | 254% |  |  |  | 
NINDFDED [A-6-6] |  |  |  |  | Growth rate (%) (human skin fibroblasts [5]): 159 ± 6.6%; growth rate relative to the growth of the control (human skin fibroblasts [5]): 1.5 fold; cell growth promotion (in words) (human skin fibroblasts [2]): showed cell growth promotion
RRAGHDRAAGS [AfH4] |  | 151% | 96% | 133% | Growth rate (%) (human skin fibroblasts [2]; [7]): 113 ± 4.8%; Growth rate (%) (human skin fibroblasts [2]; [8]): 133 ± 8.7%
SGAGGSGGYGGYGSDS [AfH2] |  | 149% | 71% | 196% | Growth rate (%) (human skin fibroblasts [2]; [7]): 118 ± 14.7%; Growth rate (%) (human skin fibroblasts [2]; [8]): 196 ± 9.4%
Tyr Tyr | 113% |  |  |  | 
Tyr Tyr Tyr Tyr (YYYY; printed: Tyr Tyr Tyr Tyr) | 156% |  |  |  | 
VETIVLEEDPYGHEDIYEED [AfH6] |  | 135% | 77% | 264% | Growth rate (%) (human skin fibroblasts [2]; [7]): 152 ± 9.0%; Growth rate (%) (human skin fibroblasts [2]; [8]): 264 ± 9.0%; cell growth promotion (in words) (human skin fibroblasts [2]): higher cell growth promotion; also recorded: excellent cell growth promotion
VITTDSDGNE [A-6-2] |  |  |  |  | Growth rate (%) (human skin fibroblasts [5]): 153 ± 2.7%; growth rate relative to the growth of the control (human skin fibroblasts [5]): 1.5 fold; cell growth promotion (in words) (human skin fibroblasts [2]): showed cell growth promotion
YGWGDGGYGSDS [AfH1] |  | 169% | 94% | 396% | Growth rate (%) (human skin fibroblasts [2]; [7]): 179 ± 13.5%; Growth rate (%) (human skin fibroblasts [2]; [8]): 396 ± 4.0%; cell growth promotion (in words) (human skin fibroblasts [2]): excellent cell growth promotion
YYYYYY | 239% |  |  |  | 
